Measurements reported in patent US20190185479A1, “BICYCLIC NITROGENATED HETEROCYCLIC COMPOUND” (MITSUBISHI TANABE PHARMA CORPORATION, priority 2016, published 2019).

Experiments:
Type in all cases: biochemical
[1] = target: T1, hPDE4D (Homo sapiens, UniProt Q08499); test: PDE4 inhibition assay (IC50), Experimental Example 3; settings: for IC50: hPDE4D, read-out: PDE inhibition assay IC50, PDE4; for inhibition at 10 µM: at 10 μmol/L
T1 construct: purchased SB Drug Discovery
Summary of the method: (§1)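 Recombinant human enzymes incubated with compound and 3 nmol/L cAMP (final) in Tris-HCl pH 7.5 buffer with MgCl2, BSA, DTT, 2% DMSO final, 60 min at room temperature. Residual cAMP measured by TR-FRET (LANCE Ultra), reaction stopped with 0.5 mmol/L IBMX. IC50 from inhibition relative to no-compound (0%) and no-enzyme (100%) controls.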

[2] = target: hPDE10A (Homo sapiens, UniProt Q9Y233); test: PDE10 inhibition assay (IC50), Experimental Example 3; settings: for IC50: hPDE10A, read-out: PDE inhibition assay IC50, PDE10; for inhibition at 10 µM: at 10 μmol/L, read-out: inhibition rate (%) at prescribed concentration, PDE10
hPDE10A, sequence (Q9Y233 290-1055 limits assumed): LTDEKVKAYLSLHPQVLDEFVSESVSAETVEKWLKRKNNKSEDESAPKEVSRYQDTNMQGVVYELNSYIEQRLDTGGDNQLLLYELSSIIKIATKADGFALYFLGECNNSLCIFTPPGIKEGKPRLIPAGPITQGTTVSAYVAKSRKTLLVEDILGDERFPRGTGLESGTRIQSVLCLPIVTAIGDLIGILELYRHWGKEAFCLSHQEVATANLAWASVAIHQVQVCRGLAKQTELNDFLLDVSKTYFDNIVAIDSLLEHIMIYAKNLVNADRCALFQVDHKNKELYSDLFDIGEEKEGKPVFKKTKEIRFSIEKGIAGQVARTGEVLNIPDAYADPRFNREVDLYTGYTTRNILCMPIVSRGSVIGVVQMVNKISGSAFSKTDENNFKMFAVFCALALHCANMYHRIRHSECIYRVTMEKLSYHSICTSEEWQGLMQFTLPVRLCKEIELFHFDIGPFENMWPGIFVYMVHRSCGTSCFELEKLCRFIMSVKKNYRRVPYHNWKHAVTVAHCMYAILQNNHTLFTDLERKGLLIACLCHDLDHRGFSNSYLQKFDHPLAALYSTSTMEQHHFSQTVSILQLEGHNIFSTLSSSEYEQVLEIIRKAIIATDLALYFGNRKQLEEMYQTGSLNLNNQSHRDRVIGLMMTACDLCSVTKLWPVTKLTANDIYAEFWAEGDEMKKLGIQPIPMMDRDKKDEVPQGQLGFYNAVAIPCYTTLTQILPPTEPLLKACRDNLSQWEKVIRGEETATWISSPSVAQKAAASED
Summary of the method: as §1

[3] = target: T2, hPDE8B (Homo sapiens, UniProt O95263); test: PDE8 inhibition assay (IC50), Experimental Example 3; settings: for IC50: hPDE8B, read-out: PDE inhibition assay IC50, PDE8; for inhibition at 1 µM: at 1 μmol/L; for inhibition at 1 µM / inhibition at 0.1 µM / inhibition at 10 µM: read-out: inhibition rate (%) at prescribed concentration, PDE8; for inhibition at 0.1 µM: at 0.1 μmol/L; for inhibition at 10 µM: at 10 μmol/L
T2 construct: purchased SB Drug Discovery
T2 sequence (O95263 whole entry): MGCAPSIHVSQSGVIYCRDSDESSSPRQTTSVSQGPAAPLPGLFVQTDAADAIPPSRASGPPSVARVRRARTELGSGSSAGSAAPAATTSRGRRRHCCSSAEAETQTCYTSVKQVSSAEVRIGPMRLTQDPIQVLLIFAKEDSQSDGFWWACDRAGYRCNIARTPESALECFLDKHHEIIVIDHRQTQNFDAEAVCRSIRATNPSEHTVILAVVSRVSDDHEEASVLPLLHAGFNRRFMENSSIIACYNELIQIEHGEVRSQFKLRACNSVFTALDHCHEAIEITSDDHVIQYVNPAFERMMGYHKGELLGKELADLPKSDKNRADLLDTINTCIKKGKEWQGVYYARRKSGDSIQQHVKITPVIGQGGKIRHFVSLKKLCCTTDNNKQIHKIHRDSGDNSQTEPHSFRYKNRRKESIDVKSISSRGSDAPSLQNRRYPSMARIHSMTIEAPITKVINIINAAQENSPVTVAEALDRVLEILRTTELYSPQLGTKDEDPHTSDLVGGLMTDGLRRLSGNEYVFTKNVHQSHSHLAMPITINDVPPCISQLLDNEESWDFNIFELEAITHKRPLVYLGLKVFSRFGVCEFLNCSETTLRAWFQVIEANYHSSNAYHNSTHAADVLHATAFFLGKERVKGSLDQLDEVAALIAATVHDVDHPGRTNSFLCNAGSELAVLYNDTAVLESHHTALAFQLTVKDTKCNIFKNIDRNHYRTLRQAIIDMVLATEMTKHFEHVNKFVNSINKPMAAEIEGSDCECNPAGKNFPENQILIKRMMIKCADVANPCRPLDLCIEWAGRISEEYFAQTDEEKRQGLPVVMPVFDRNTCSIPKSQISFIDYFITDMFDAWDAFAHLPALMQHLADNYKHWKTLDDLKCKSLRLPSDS
Summary of the method: as §1

[4] = target: T3, Human PDE7B (hPDE7B) (Homo sapiens, UniProt Q9NP56); test: Measurement of PDE7 inhibitory activity (Experimental Example 1; residual cAMP, LANCE Ultra cAMP TR-FRET); settings: cAMP 3 nmol/L, room temperature 60 minutes
T3 construct: made in house; host or cells: COS-7 cells
T3 sequence (Q9NP56 whole entry): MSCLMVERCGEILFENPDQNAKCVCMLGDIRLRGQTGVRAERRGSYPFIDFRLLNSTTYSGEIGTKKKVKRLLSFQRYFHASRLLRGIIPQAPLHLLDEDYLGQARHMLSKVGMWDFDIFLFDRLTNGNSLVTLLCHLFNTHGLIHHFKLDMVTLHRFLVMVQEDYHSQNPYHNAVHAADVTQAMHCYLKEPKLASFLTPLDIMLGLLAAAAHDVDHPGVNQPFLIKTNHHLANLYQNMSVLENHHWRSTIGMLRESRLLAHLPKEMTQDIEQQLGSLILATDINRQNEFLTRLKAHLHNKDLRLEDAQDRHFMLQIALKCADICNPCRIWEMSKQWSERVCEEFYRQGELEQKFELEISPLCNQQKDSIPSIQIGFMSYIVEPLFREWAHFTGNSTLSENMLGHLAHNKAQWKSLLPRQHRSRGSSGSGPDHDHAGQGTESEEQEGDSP
Summary of the method: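 hPDE7B from transfected COS-7 cells reacted with 3 nmol/L cAMP (final) and compound (2% DMSO) in 50 mmol/L Tris-HCl pH 7.5, 1 mmol/L MgCl2, 0.1% BSA, 0.5 mmol/L DTT, 60 min at room temperature. Reaction stopped with IBMX; residual cAMP measured by TR-FRET. Inhibition scaled between no-compound and no-enzyme controls.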

[5] = read-out: inhibition rate (%) at prescribed concentration, PDE4

T1 sequence (Q08499 whole entry): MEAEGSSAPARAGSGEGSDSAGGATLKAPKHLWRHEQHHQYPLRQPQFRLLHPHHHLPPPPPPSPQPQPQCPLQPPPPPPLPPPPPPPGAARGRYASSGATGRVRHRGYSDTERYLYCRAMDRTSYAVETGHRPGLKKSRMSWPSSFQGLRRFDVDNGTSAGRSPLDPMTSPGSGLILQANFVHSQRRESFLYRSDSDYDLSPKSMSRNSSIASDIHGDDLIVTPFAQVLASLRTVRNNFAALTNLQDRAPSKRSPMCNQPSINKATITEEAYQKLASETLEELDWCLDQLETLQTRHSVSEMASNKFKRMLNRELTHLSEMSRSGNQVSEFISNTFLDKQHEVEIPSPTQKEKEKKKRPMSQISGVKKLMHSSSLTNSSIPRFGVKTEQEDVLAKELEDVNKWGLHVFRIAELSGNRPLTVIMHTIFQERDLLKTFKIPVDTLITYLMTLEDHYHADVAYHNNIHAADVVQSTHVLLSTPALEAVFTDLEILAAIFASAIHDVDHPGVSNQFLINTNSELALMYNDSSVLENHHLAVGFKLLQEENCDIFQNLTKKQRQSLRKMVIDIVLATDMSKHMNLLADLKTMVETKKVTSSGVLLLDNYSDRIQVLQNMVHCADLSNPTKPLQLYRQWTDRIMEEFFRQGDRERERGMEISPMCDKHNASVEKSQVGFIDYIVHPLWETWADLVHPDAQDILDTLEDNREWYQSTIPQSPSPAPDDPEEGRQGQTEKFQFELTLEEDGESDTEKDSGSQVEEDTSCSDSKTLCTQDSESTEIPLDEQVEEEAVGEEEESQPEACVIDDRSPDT

| Structure (SMILES) | IC50 [1] | IC50 [2] | IC50 [3] | IC50 [4] | inhibition at 1 µM [3] | inhibition at 10 µM [2] | inhibition at 0.1 µM [3] | inhibition at 10 µM [1, 5] | inhibition at 10 µM [3] | inhibition at 0.1 µM ([1]; at 0.1 μmol/L, read-out: inhibition rate (%) at prescribed concentration, PDE4) |
| --- | --- | --- | --- | --- | --- | --- | --- | --- | --- | --- |
| Cc1cnc(N)c2nnc(N3CCCC(C)(C)C3)n12 [Example 80, 3-(3,3-dimethylpiperidin-1-yl)-5-methyl[1,2,4]triazolo[4,3-a]pyrazin-8-amine] | 6000 nM | 8000 nM | 3000 nM | 3 nM |  |  |  |  |  |  |
| Nc1ncnc2c1nnn2[C@@H]1CCCOC1 [Example 90] | 3700 nM | 19000 nM |  | 120 nM | 59% |  |  |  |  |  |
| C[C@H]1CC[C@@H](n2nnc3c(N)ncnc32)CC1 [Example 99, 3-(cis-4-methylcyclohexyl)-3H-[1,2,3]triazolo[4,5-d]pyrimidin-7-amine] | 1600 nM |  | 120 nM | 20 nM |  | 38% |  |  |  |  |
| CC1(C)CCC(n2nnc3c(N)ncnc32)CC1 [Example 101, 3-(4,4-dimethylcyclohexyl)-3H-[1,2,3]triazolo[4,5-d]pyrimidin-7-amine] | 640 nM | 5840 nM |  | 20 nM |  |  | 69% |  |  |  |
| Nc1ncnc2c1nnn2C1CCC(F)(F)CC1 [Example 104] | 9450 nM |  | 2060 nM | 170 nM |  | 25% |  |  |  |  |
| Nc1ncnc2c1nnn2C1CCCCCC1 [Example 110, 3-cycloheptyl-3H-[1,2,3]triazolo[4,5-d]pyrimidin-7-amine] | 3500 nM |  | 590 nM | 30 nM |  | 33% |  |  |  |  |
| CN1CCC[C@H](n2nnc3c(N)ncnc32)C1 [Example 135, 3-[(3S)-1-methylpiperidin-3-yl]-3H-[1,2,3]triazolo[4,5-d]pyrimidin-7-amine] |  |  | 9410 nM | 310 nM |  | 22% |  | 17% |  |  |
| Nc1nccn2c(C3(F)CCCCC3)nnc12 [Example 142, 3-(1-fluorocyclohexyl) [1,2,4]triazolo[4,3-a]pyrazin-8-amine] | 5720 nM |  |  | 50 nM |  | 48% |  |  | 49% |  |
| C[C@H]1CC[C@H](c2nnc3c(N)nccn32)CC1 [Example 149, 3-(trans-4-methylcyclohexyl) [1,2,4]triazolo[4,3-a]pyrazin-8-amine] | 2200 nM |  | 1660 nM | 40 nM |  | 46% |  |  |  |  |
| CC1CCC(F)(F)CC1c1nnc2c(N)nccn12 (stereo not shown) [Example 153] | 35100 nM | 18600 nM | 21900 nM | 70 nM |  |  |  |  |  |  |
| Nc1nccn2c(C3CCc4[nH]ncc4C3)nnc12 (stereo not shown) [Example 159] | 4770 nM | 10600 nM | 3510 nM | 60 nM |  |  |  |  |  |  |
| Nc1nccn2c([C@@H]3C[C@@H]4[C@H](C3)C4(F)F)nnc12 [Example 160] | 3410 nM | 34900 nM |  | 80 nM | 54% |  |  |  |  |  |
| Nc1nccn2c(C3CCCC3)nnc12 [Example 161] | 5500 nM |  | 1770 nM | 110 nM |  | 27% |  |  |  |  |
| Nc1nccn2c(C3[C@H]4CCCC[C@@H]34)nnc12 (stereo partly drawn) [Example 164, 3-[(1R,6S,7r)-bicyclo[4.1.0]hept-7-yl][1,2,4]triazolo[4,3-a]pyrazin-8-amine] | 3790 nM |  | 4400 nM | 30 nM |  | 41% |  |  |  |  |
| Nc1nccn2c(N3CCCCC3)nnc12 [Example 166] | 3870 nM |  | 8890 nM | 160 nM |  | 39% |  |  |  |  |
| CC(C)(C)OC(=O)N1CCC[C@H](c2nnc3c(N)nccn23)C1 [Example 167] |  | 3700 nM |  | 60 nM |  |  | 98% |  |  | 66% |
| Nc1nccn2c(C3CCCOC3)nnc12 (stereo not shown) [Example 169] |  | 20800 nM | 1740 nM | 90 nM |  |  |  | 33% |  |  |
| Cc1cnc(N)c2nnc(C3CCCCC3)n12 [Example 171, 3-cyclohexyl-5-methyl[1,2,4]triazolo[4,3-a]pyrazin-8-amine] |  | 7200 nM | 2950 nM | 70 nM |  |  |  | 48% |  |  |
| Nc1nccn2c([C@H]3[C@@H]4CCC[C@@H]43)nnc12 [Example 179, 3-[(1R,5S,6r)-bicyclo[3.1.0]hex-6-yl][1,2,4]triazolo[4,3-a]pyrazin-8-amine] | 4700 nM | 17900 nM | 4000 nM | 80 nM |  |  |  |  |  |  |

Continued, values first:

| IC50 [1] | IC50 [2] | IC50 [3] | IC50 [4] | inhibition at 1 µM [3] | inhibition at 10 µM [2] | inhibition at 0.1 µM [3] | inhibition at 10 µM [1, 5] | inhibition at 10 µM [3] | inhibition at 0.1 µM ([1]; at 0.1 μmol/L, read-out: inhibition rate (%) at prescribed concentration, PDE4) | Structure (SMILES) |
| --- | --- | --- | --- | --- | --- | --- | --- | --- | --- | --- |
| 7800 nM |  |  | 390 nM |  | 41% |  |  | 36% |  | Nc1nccn2c(C3CCCCC3)ncc12 [Example 180, 3-cyclohexylimidazo[1,5-a]pyrazin-8-amine] |
|  |  |  | 340 nM |  | 49% |  | 21% | 24% |  | Nc1ncnc2c1cnn2C1CCCCC1 [Example 181] |
|  | 500 nM |  | 540 nM |  |  |  | 48% | 18% |  | Cc1nn(C2CCCCC2)c2ncnc(N)c12 [Example 184] |
|  |  |  | 460 nM |  | 7% |  | -5% | -1% |  | Nc1cccn2c(C3CCCCC3)nnc12 [Example 186, 3-cyclohexyl[1,2,4]triazolo[4,3-a]pyridin-8-amine] |
|  |  | 7330 nM | 210 nM |  | 50% |  | 38% |  |  | Nc1ncnc2c(C3CCCCC3)noc12 [Example 188, 3-cyclohexylisoxazolo[4,5-d]pyrimidin-7-amine] |
|  |  |  | 470 nM |  | 0.9% |  | 22% | 24% |  | Nc1cncn2c(C3CCCCC3)nnc12 [Example 189, 3-cyclohexyl[1,2,4]triazolo[4,3-c]pyrimidin-8-amine] |
| 15900 nM | 15600 nM | 6070 nM | 40 nM |  |  |  |  |  |  | Nc1nccn2c([C@H]3CCCC(F)(F)C3)nnc12 [Example 212, 3-[(1S)-3,3-difluorocyclohexyl][1,2,4]triazolo[4,3-a]pyrazin-8-amine] |
| 1880 nM | 5570 nM | 1510 nM | < 10 nM |  |  |  |  |  |  | CC1(C)CCCN(c2nnc3c(N)ncc(Cl)n23)C1 [Example 248, 5-chloro-3-(3,3-dimethylpiperidin-1-yl) [1,2,4]triazolo[4,3-a]pyrazin-8-amine] |
| 1800 nM | 7400 nM |  | < 10 nM | 53% |  |  |  |  |  | CC1(C)CCCN(c2nnc3c(N)ncc(C(F)(F)F)n23)C1 [Example 252, 3-(3,3-dimethylpiperidin-1-yl)-5-(trifluoromethyl) [1,2,4]triazolo[4,3-a]pyrazin-8-amine] |
